Experiment [1] deals with T1, Prostaglandin E synthase (Homo sapiens) (UniProt O14684).
T1 sequence (whole entry): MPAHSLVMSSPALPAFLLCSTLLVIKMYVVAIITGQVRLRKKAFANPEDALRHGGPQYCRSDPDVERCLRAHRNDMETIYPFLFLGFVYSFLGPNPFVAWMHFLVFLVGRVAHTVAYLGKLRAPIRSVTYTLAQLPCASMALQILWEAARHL
In words: Inhibition of human recombinant mPGES-1 expressed in CHO cells using PGH2 as substrate at 1 uM incubated for 10 mins prior to substrate addition measured after 1 min.

Experiment [2] deals with T1, Prostaglandin E synthase (Homo sapiens). In words: Inhibition of human recombinant mPGES-1 expressed in CHO cells using PGH2 as substrate at 10 uM incubated for 10 mins prior to substrate addition measured after 1 min. It is filed as cell-based.
For experiment [3], the target named is T2, Prostaglandin E synthase (Homo sapiens, UniProt O14684).
T2 sequence (O14684 whole entry): T1 sequence (whole entry)
In words: Inhibition of human recombinant mPGES-1 expressed in CHO cells using PGH2 as substrate incubated for 10 mins prior to substrate addition measured after 1 min.

Experiment [4] has as its target T2, Prostaglandin E synthase. The experiment can be described thus: Inhibition of mPGES-1 in human A549 cells using arachidonic acid as substrate assessed as inhibition of IL-1beta/TNF-alpha-induced PGE2 production incubated for 30 mins prior to substrate addition measured after 30 mins by EIA. It counts as cell-based.
The target in experiment [5] is T2, Prostaglandin E synthase. In words: Inhibition of mPGES-1 in human A549 cells assessed as inhibition of IL-1beta-induced PGE2 production incubated for 30 mins prior to IL-1beta challenge measured after 18 to 24 hrs. It is filed as cell-based.
A short description of experiment [6]: Inhibition of guinea pig recombinant mPGES-1. Also noted: species or system Cavia porcellus.
Experiment [7] concerns the target T2, Prostaglandin E synthase. In words: Inhibition of human mPGES-1.
Experiment [8] addresses T2, Prostaglandin E synthase. The experiment can be described thus: Inhibition of mPGES-1 in human A549 cells. It is filed as cell-based.
Experiment [9] concerns the target T2, Prostaglandin E synthase. In words: Inhibition of mPGES-1 in human whole blood assessed as inhibition of LPS-induced PGE2 production after overnight incubation.
Experiment [10] has as its target T2, Prostaglandin E synthase. The experiment can be described thus: Inhibition of mPGES-1 in human A549 cells assessed as inhibition of IL-1beta-induced PGE2 production incubated for 30 mins prior to IL-1beta challenge measured after 18 hrs by plate reader analysis. It is filed as cell-based.
Experiment [11] has as its target T2, Prostaglandin E synthase. In words: Inhibition of mPGES-1 in human whole blood assessed as inhibition of LPS-induced PGE2 production incubated for 30 mins prior to LPS challenge measured after 20 to 24 hrs by LC/MS/MS analysis.

Consider 41 compounds from ChEMBL document CHEMBL3351804, “Development of 2-aryl substituted quinazolin-4(3H)-one, pyrido[4,3-d]pyrimidin-4(3H)-one and pyrido[2,3-d]pyrimidin-4(3H)-one derivatives as microsomal prostaglandin E(2) synthase-1 inhibitors” (Bioorg Med Chem Lett, 2014).

By inhibition is commonly meant the share of the control response that was lost under treatment. In the case of `CC(C)C(=O)NCc1ccc(Cl)c(-c2nc3cc(Cl)c(N4CCNC(=O)C4)cc3c(=O)[nH]2)c1`, the inhibition came to 30% in experiment [1] and 79% in experiment [2]. One may read the IC50 as the midpoint of a concentration-inhibition curve. As to `CC(C)C(=O)NCc1ccc(Cl)c(-c2nc3cc(Cl)c(N4CCOCC4)cc3c(=O)[nH]2)c1`, at Prostaglandin E synthase [3], the concentration for half-maximal inhibition (IC50) was 261 nM. Turning to `COc1cc2c(=O)[nH]c(-c3cc(CNC(=O)C(C)C)ccc3Cl)nc2cc1Cl`, the IC50 at Prostaglandin E synthase [3] amounted to 111 nM.

Consider `CC(C)C(=O)NCc1ccc(Cl)c(-c2nc3cc(Br)ccc3c(=O)[nH]2)c1`, for which, on Prostaglandin E synthase [3], the IC50 stood at 36 nM. Turning to `CC(C)C(=O)NCc1ccc(Cl)c(-c2nc3cc(NC(=O)C4CC4)ccc3c(=O)[nH]2)c1`, the values for the inhibition in experiment [1] and in experiment [2] were 21% and 74%, respectively. In the case of `O=C(Nc1ccc(C(F)(F)F)cn1)c1cccc(NC(=O)c2ccccc2C(F)(F)F)c1`, at Prostaglandin E synthase [4], the half-inhibitory concentration (IC50) came to 500 nM.

Turning to `CC(C)C(=O)NCc1cnc(C(F)F)c(-c2nc3cc(-c4ccc(C(F)(F)F)cc4)ccc3c(=O)[nH]2)c1`, the results for the IC50 on Prostaglandin E synthase [3] and at Prostaglandin E synthase [5] were 6 nM and 33 nM, respectively. With `CC(C)C(=O)NCc1ccc(Cl)c(-c2nc3cc(Cl)c(-c4ccncc4)cc3c(=O)[nH]2)c1`, at Prostaglandin E synthase [3], the IC50 was 481 nM.

Turning to `N#Cc1cccc(C#N)c1-c1nc2c3ccc(Cl)cc3c3ccccc3c2[nH]1`, the half-inhibitory concentration (IC50) in experiment [6] came out at 0.9 nM.

Consider `CC(C)C(=O)NCc1ccc(Cl)c(-c2nc3ccccc3c(=O)[nH]2)c1`, for which the inhibition in [1] worked out at 17%; in experiment [2], 67%. `CC(C)C(=O)NCc1cnc(C(F)F)c(-c2nc3cc(-c4ccc(C(F)(F)F)cc4)ncc3c(=O)[nH]2)c1`: the IC50 on Prostaglandin E synthase [3] was 4 nM; on Prostaglandin E synthase [5], 111 nM. Turning to `COCc1nc2c(C(=O)Nc3cccc(Cl)c3C)cc(NC(=O)c3c(Cl)cccc3C(F)(F)F)cc2[nH]1`, the IC50 on Prostaglandin E synthase [7] was determined as 0.1 nM; at Prostaglandin E synthase [8], 1.2 nM. With `CC(C)C(=O)NCc1ccc(Cl)c(-c2nc3cc(-c4ccc(C(F)(F)F)cc4)ccc3c(=O)[nH]2)c1`, the IC50 at Prostaglandin E synthase [3] amounted to 7 nM; at Prostaglandin E synthase [5] it was 10 nM; at Prostaglandin E synthase [9] it was 234 nM. Turning to `O=C(Nc1ccc2cnn(-c3ccc(Br)cc3)c(=O)c2c1)c1c(F)cccc1Cl`, the IC50 at Prostaglandin E synthase [3] is 179 nM. As to `CC(C)(C)C(=O)NCc1ccc(Cl)c(C(=O)Nc2ccnc3c(Nc4ccc(C(F)(F)F)cc4)nsc23)c1`, at Prostaglandin E synthase [3], the IC50 was found to be 3 nM. The same measure, in the same setting: then `CC(=O)O[C@@H]1CCN(c2cc3c(=O)[nH]c(-c4cc(CNC(=O)C(C)C)ccc4Cl)nc3cc2Cl)C1`, with 248 nM; and `CC(C)C(=O)NCc1ccc(Cl)c(-c2nc3cc(Cl)ccc3c(=O)[nH]2)c1`, with 42 nM. As to `CC(C)C(=O)NCc1ccc(Cl)c(-c2nc3cc(N4CCC(C(F)(F)F)CC4)ccc3c(=O)[nH]2)c1`, on Prostaglandin E synthase [3], the IC50 stood at 74 nM. In the case of `CC(C)C(=O)NCc1ccc(Cl)c(-c2nc3cc(Cl)c(C4CC4)cc3c(=O)[nH]2)c1`, at Prostaglandin E synthase [3], the IC50 turned out to be 32 nM. As for `CNC(=O)C1CCN(c2cc3c(=O)[nH]c(-c4cc(CNC(=O)C(C)C)ccc4Cl)nc3cc2Cl)CC1`, the inhibition in experiment [1] was 28%; in experiment [2], 76%. Turning to `CC(C)C(=O)NCc1ccc(Cl)c(-c2nc3cc(N)ccc3c(=O)[nH]2)c1`, the results for the inhibition in experiment [1] and in experiment [2] were 16% and 70%, respectively.

On to `CC(C)C(=O)NCc1ccc(Cl)c(-c2nc3cc(Cl)c(N4CC[C@@H](O)C4)cc3c(=O)[nH]2)c1`, for which the inhibition in experiment [1] was 67%; in [2] it was 95%. Turning to `CC(C)C(=O)NCc1ccc(Cl)c(-c2nc3nc(-c4ccc(C(F)(F)F)cc4)ccc3c(=O)[nH]2)c1`, the IC50 on Prostaglandin E synthase [3] is 10 nM; on Prostaglandin E synthase [5], 11 nM; on Prostaglandin E synthase [9], 328 nM. Consider `CC(C)C(=O)NCc1ccc(Cl)c(-c2nc3cc(-c4ccc(C(F)(F)F)nc4)ccc3c(=O)[nH]2)c1`, for which the half-inhibitory concentration (IC50) at Prostaglandin E synthase [3] was found to be 16 nM; at Prostaglandin E synthase [5], 23 nM. Regarding `Cc1nc(NC(=O)c2cc(CNC(=O)C(C)C)cnc2C(F)F)[nH]c1-c1ccc(C(F)(F)F)cc1`, the IC50 on Prostaglandin E synthase [10] and on Prostaglandin E synthase [11] was 12 nM throughout. `CC(C)C(=O)NCc1ccc(Cl)c(-c2nc3cc(C(N)=O)ccc3c(=O)[nH]2)c1`: the inhibition in [1] was found to be 14%; in experiment [2], 16%. Regarding `CC(C)C(=O)NCc1ccc(Cl)c(-c2nc3cc(Cl)c(N4CCC(O)CC4)cc3c(=O)[nH]2)c1`, at Prostaglandin E synthase [3], the half-inhibitory concentration (IC50) is 713 nM.

With `CC(C)C(=O)NCc1ccc(Cl)c(-c2nc3ccc(-c4ccc(C(F)(F)F)cc4)cc3c(=O)[nH]2)c1`, on Prostaglandin E synthase [3], the IC50 is 55 nM. Same read-out and setting: next, `CC(C)(C)C(=O)NCc1ccc(Cl)c(C(=O)Nc2ccc3cnn(-c4ccc(C(F)(F)F)cc4)c(=O)c3c2)c1`: 5 nM. The same measure, in the same setting: then `O=C(Nc1ccnc2c(Nc3ccc(C(F)(F)F)cc3)nsc12)c1c(F)cccc1Cl`, with 157 nM; and `COc1ccc2c(=O)[nH]c(-c3cc(CNC(=O)C(C)C)ccc3Cl)nc2c1`, with 304 nM. For the compound `CC(C)C(=O)NCc1ccc(Cl)c(-c2nc3cc(F)ccc3c(=O)[nH]2)c1`, the results for the inhibition in experiment [1] and in experiment [2] were 52% and 98%, respectively. For `CC(C)C(=O)NCc1ccc(Cl)c(-c2nc3cc(C4CC4)ccc3c(=O)[nH]2)c1`, the IC50 at Prostaglandin E synthase [3] worked out at 58 nM. For the compound `CC(C)C(=O)NCc1ccc(Cl)c(-c2nc3cc(Cl)c(N4CC[C@H](O)C4)cc3c(=O)[nH]2)c1`, the inhibition in experiment [1] was determined as 42%; in [2], 91%. Take `CC(C)C(=O)NCc1ccc(Cl)c(-c2nc3cc(C(F)(F)F)ccc3c(=O)[nH]2)c1`: the IC50 on Prostaglandin E synthase [3] came to 26 nM.

As for `CC(C)C(=O)NCc1ccc(Cl)c(-c2nc3cc(Cl)c(N4CCN(C)CC4)cc3c(=O)[nH]2)c1`, the results for the inhibition in experiment [1] and in experiment [2] were 41% and 75%, respectively. On to `CC(=O)O[C@H]1CCN(c2cc3c(=O)[nH]c(-c4cc(CNC(=O)C(C)C)ccc4Cl)nc3cc2Cl)C1`, for which the IC50 on Prostaglandin E synthase [3] is 243 nM. Regarding `CC(C)C(=O)NCc1ccc(Cl)c(-c2nc3cc([N+](=O)[O-])ccc3c(=O)[nH]2)c1`, the IC50 at Prostaglandin E synthase [3] was 63 nM. For `CC(C)C(=O)NCc1ccc(Cl)c(-c2nc3cc(Cl)c(N4CC(C(=O)NC(C)(C)C)C4)cc3c(=O)[nH]2)c1`, the half-maximal inhibitory concentration (IC50) at Prostaglandin E synthase [3] was determined as 59 nM.

`CC(C)C(=O)NCc1ccc(Cl)c(-c2nc3cc(Cl)c(-c4ccc(C(F)(F)F)cc4)cc3c(=O)[nH]2)c1`: the IC50 on Prostaglandin E synthase [3] came out at 36 nM. Regarding `CC(C)C(=O)NCc1ccc(Cl)c(-c2nc3cc(Cl)c(N4CCC(C(F)F)CC4)cc3c(=O)[nH]2)c1`, the IC50 on Prostaglandin E synthase [3] came out at 24 nM.
